Measured values published in PMC11845477, “Exploring the principles behind antibiotics with limited resistance” (Nature Communications, 2025).
Read-outs that look alike come from different tables or passages of the source.

Experiments:
[1] = system: A. baumannii ATCC 17978 (SEN) and A. baumannii ATCC BAA-1605 (MDR); experiment: Frequency-of-resistance (FoR) assay, relative MIC of mutants; type: cell-based, Acinetobacter baumannii; details: for MIC: Acinetobacter baumannii
Experimental: (§1) The susceptibility of antibiotics to resistance development was evaluated in two strains of each bacterial species: a multidrug-resistant strain and an antibiotic-sensitive strain of Escherichia coli, Klebsiella pneumoniae, Acinetobacter baumannii, and Pseudomonas aeruginosa. To explore first-step resistance, we previously used a standard protocol for spontaneous frequency-of-resistance analysis (FoR assay) at multiple concentrations of each antibiotic[10],[28],[31]–[33]. […] For all other combinations, approximately 10^10 bacterial cells were exposed to one of each antibiotic on agar plates for two days at concentrations where the given strain is susceptible. We examined resistance levels by contrasting the minimum inhibitory concentration (MICs) of the mutated strains to the original wild-type bacterial strain (i.e., relative MIC).
(§2) To estimate the frequency of spontaneous mutations that confer resistance in a microbial population, we conducted a frequency of resistance (FoR) assay following established protocols[10],[31]–[33]. […] Prior to plating, bacteria were grown overnight in MHB medium at 37 °C and 250 RPM, then centrifuged and washed in MHB. All experiments were performed in triplicate, and plates were incubated at 37 °C for 48 hours. Total colony-forming units (CFUs) were determined by plating appropriate dilutions onto antibiotic-free MHB agar. Resistance frequencies were calculated by dividing the number of resistant colonies by the initial viable cell count. From the plates with the highest antibiotic concentration, ten colonies were selected for MIC determination and whole-genome sequencing.
(§3) A robotic liquid handling system was used to automatically prepare a 11 to 16-step serial dilution in 384-well microtiter plates (Greiner). A final concentration of 5 × 10^5 bacterial cells per mL were inoculated into each well containing 60 µL MHB medium. Bacterial cultures were incubated at 37 °C with continuous shaking (Infors shaker, 900 rpm with 3 mm throw) for 18 hours (2 replicates from each). Cell growth was monitored by measuring the optical density (OD600 values, using Biotek Synergy microplate reader). MIC was defined as the antibiotic concentration of complete growth inhibition (i.e., OD600 < 0.05). Relative MIC was calculated as follows:1 relativeMIC=MICevolved/MICancestor […]
(§4) Supplementary Figure 3. Resistance levels following the frequency of resistance assay across bacterial strains. The level of resistance was measured as the fold change in relative MIC between evolved and ancestral strains. Data are grouped by bacterial strain (A. baumannii (AB), E. coli (EC), K. pneumoniae (KP), and P. aeruginosa (PA)) and categorized as either multidrug-resistant (MDR) or sensitive (SEN). Each data point represents a laboratory evolved line, and boxplots show the median, first and third quartiles, with whiskers indicating the 5th and 95th percentiles. […]
(§5) analysis was performed using two-sided Dunn’s post-hoc test with Benjamini-Hochberg correction for multiple comparisons (**/ * indicates p < 0.01/ 0.05). For detailed information on antibiotic and bacterial species, see Supplementary Table 1. For mode of action groups, refer to Table 1. Source data are provided as a Source Data file.

[2] = system: K. pneumoniae ATCC 10031 (SEN) and K. pneumoniae ATCC 700603 (MDR); experiment: as above; type: cell-based, Klebsiella pneumoniae; details: for MIC: Klebsiella pneumoniae
Experimental: as §1, §2, §3, §4, §5

[3] = system: K. pneumoniae ATCC 10031 (SEN) and K. pneumoniae ATCC 700603 (MDR); experiment: microbe, parasite or virus in culture; type: cell-based, Klebsiella pneumoniae; details: for MIC: across three biological replicates
Experimental: This study focused on multiple bacterial strains, as follows. For the FoR and ALE experiments, 2 strains per species were chosen: E. coli ATCC 25922, K. pneumoniae ATCC 10031, A. baumannii ATCC 17978, and P. aeruginosa ATCC BAA-3107 as sensitive (SEN) strains, and E. coli NCTC13846, K. pneumoniae ATCC 700603, A. baumannii ATCC BAA-1605 and P. aeruginosa LESB58 as multi-drug resistant (MDR) strains. Functional metagenomic screens were performed with E. coli ATCC 25922 and K. pneumoniae ATCC 10031 strains. To determine the dose-kill properties of the different antibiotics, an E. coli strain (ATCC 25922) expressing a yellow fluorescent protein (pZS2R, YFP, CHL^R) and a red fluorescent protein (pZS2R, mCherry, CHL^R) was used.
Unless otherwise indicated, cation-adjusted Mueller-Hinton Broth 2 (MHB, Millipore) medium was used throughout the study, except for SCH79797 (SCH).
A robotic liquid handling system was used to automatically prepare a 11 to 16-step serial dilution in 384-well microtiter plates (Greiner). A final concentration of 5 × 10^5 bacterial cells per mL were inoculated into each well containing 60 µL MHB medium. Bacterial cultures were incubated at 37 °C with continuous shaking (Infors shaker, 900 rpm with 3 mm throw) for 18 hours (2 replicates from each). Cell growth was monitored by measuring the optical density (OD600 values, using Biotek Synergy microplate reader). MIC was defined as the antibiotic concentration of complete growth inhibition (i.e., OD600 < 0.05). Relative MIC was calculated as follows:1 relativeMIC=MICevolved/MICancestor

[4] = Acinetobacter baumannii ATCC 17978 (AB-SEN), evolved line 1 versus ancestor
[5] = Acinetobacter baumannii ATCC 17978 (AB-SEN), evolved line 2 versus ancestor
[6] = Acinetobacter baumannii ATCC 17978 (AB-SEN), evolved line 3 versus ancestor
[7] = Klebsiella pneumoniae ATCC 10031 (KP-SEN), evolved line 1 versus ancestor
[8] = Klebsiella pneumoniae ATCC 10031 (KP-SEN), evolved line 2 versus ancestor
[9] = Klebsiella pneumoniae ATCC 10031 (KP-SEN), evolved line 3 versus ancestor
[10] = Klebsiella pneumoniae ATCC 700603 (KP-MDR), evolved line 1 versus ancestor
[11] = Klebsiella pneumoniae ATCC 700603 (KP-MDR), evolved line 2 versus ancestor
[12] = Klebsiella pneumoniae ATCC 700603 (KP-MDR), evolved line 3 versus ancestor
[13] = Klebsiella pneumoniae ATCC 10031 (KP-SEN), ancestor strain, sheet fig 2a
[14] = Klebsiella pneumoniae ATCC 700603 (KP-MDR), ancestor strain, sheet fig 2a
[15] = read-out: MIC of evolved line, Acinetobacter baumannii ATCC 17978 (AB-SEN), evolved line 2
[16] = read-out: MIC of evolved line, Klebsiella pneumoniae ATCC 10031 (KP-SEN), evolved line 1
[17] = read-out: MIC of evolved line, Klebsiella pneumoniae ATCC 10031 (KP-SEN), evolved line 2
[18] = read-out: MIC of evolved line, Klebsiella pneumoniae ATCC 10031 (KP-SEN), evolved line 3
[19] = Klebsiella pneumoniae, Klebsiella pneumoniae ATCC 10031 (KP-SEN)
[20] = Klebsiella pneumoniae, Klebsiella pneumoniae ATCC 700603 (KP-MDR)

C[C@@H](O)[C@H]1C(=O)N2C(C(=O)O)=C(S[C@H]3CC[S@@+]([O-])C3)S[C@H]12 [Sulopenem]
MIC of evolved line ([1]; Acinetobacter baumannii ATCC 17978 (AB-SEN), evolved line 1): 4 µg/mL
MIC of evolved line ([1]; Acinetobacter baumannii ATCC 17978 (AB-SEN), evolved line 2): 4 µg/mL
MIC of evolved line ([1]; Acinetobacter baumannii ATCC 17978 (AB-SEN), evolved line 3): 4 µg/mL
Relative MIC [1, 4]: 4
Relative MIC [1, 5]: 4
Relative MIC [1, 6]: 4
MIC of evolved line ([2]; Klebsiella pneumoniae ATCC 10031 (KP-SEN), evolved line 1): 0.0312 µg/mL
MIC of evolved line ([2]; Klebsiella pneumoniae ATCC 10031 (KP-SEN), evolved line 2): 0.0312 µg/mL
MIC of evolved line ([2]; Klebsiella pneumoniae ATCC 10031 (KP-SEN), evolved line 3): 0.0312 µg/mL
Relative MIC [2, 7]: 1
Relative MIC [2, 8]: 1
Relative MIC [2, 9]: 1
MIC of evolved line ([2]; Klebsiella pneumoniae ATCC 700603 (KP-MDR), evolved line 1): 4 µg/mL
MIC of evolved line ([2]; Klebsiella pneumoniae ATCC 700603 (KP-MDR), evolved line 2): 4 µg/mL
MIC of evolved line ([2]; Klebsiella pneumoniae ATCC 700603 (KP-MDR), evolved line 3): 8 µg/mL
Relative MIC [2, 10]: 8
Relative MIC [2, 11]: 8
Relative MIC [2, 12]: 16
MIC of ancestor [3, 13]: 0.0312 µg/mL
MIC ([3]; Klebsiella pneumoniae ATCC 10031 (KP-SEN)): 0.03125 µg/mL
MIC of ancestor [3, 14]: 0.5 µg/mL
MIC ([3]; Klebsiella pneumoniae ATCC 700603 (KP-MDR)): 0.5 µg/mL
MIC of ancestor ([3]; ancestor KP-MDR (Klebsiella pneumoniae ATCC 700603)): 0.5 µg/mL
MIC of ancestor ([3]; ancestor KP-SEN (Klebsiella pneumoniae ATCC 10031)): 0.0312 µg/mL

O=c1ccc2ncc(=O)n3c2n1C[C@H]3CN1CCC(NCc2cc3c(cn2)OCCC3)CC1 [Gepotidacin]
Relative MIC [1, 4]: 16
Relative MIC [1, 5]: 4
Relative MIC [1, 6]: 16
MIC [1, 15]: 8 µg/mL
Relative MIC [2, 7]: 1
Relative MIC [2, 8]: 1
Relative MIC [2, 9]: 1
MIC [2, 16]: 0.0625 µg/mL
MIC [2, 17]: 0.0625 µg/mL
MIC [2, 18]: 0.0625 µg/mL
MIC of ancestor ([3]; KP-SEN, Klebsiella pneumoniae ATCC 10031, ancestor strain): 0.125 µg/mL
MIC of ancestor [3, 13]: 0.125 µg/mL
MIC [3, 19]: 0.125 µg/mL
MIC [3, 20]: 16 µg/mL

CN(C)[C@@H]1C(O)=C(C(N)=O)C(=O)[C@@]2(O)C(O)=C3C(=O)c4c(O)c(NC(=O)CN5CCCC5)cc(F)c4C[C@H]3C[C@@H]12 [Eravacycline]
Relative MIC [1, 4]: 8
Relative MIC [1, 5]: 16
Relative MIC [1, 6]: 8
Relative MIC ([1]; Acinetobacter baumannii ATCC BAA 1605 (AB-MDR), evolved line 1 versus ancestor): 4
Relative MIC ([1]; Acinetobacter baumannii ATCC BAA 1605 (AB-MDR), evolved line 2 versus ancestor): 4
Relative MIC ([1]; Acinetobacter baumannii ATCC BAA 1605 (AB-MDR), evolved line 3 versus ancestor): 8
MIC ([1]; read-out: MIC of evolved line, Acinetobacter baumannii ATCC 17978 (AB-SEN), evolved line 1): 0.5 µg/mL
MIC [1, 15]: 1 µg/mL
MIC ([1]; read-out: MIC of evolved line, Acinetobacter baumannii ATCC 17978 (AB-SEN), evolved line 3): 0.5 µg/mL
MIC ([1]; read-out: MIC of evolved line, Acinetobacter baumannii ATCC BAA 1605 (AB-MDR), evolved line 1): 8 µg/mL
MIC ([1]; read-out: MIC of evolved line, Acinetobacter baumannii ATCC BAA 1605 (AB-MDR), evolved line 2): 8 µg/mL
MIC ([1]; read-out: MIC of evolved line, Acinetobacter baumannii ATCC BAA 1605 (AB-MDR), evolved line 3): 16 µg/mL
Relative MIC [2, 7]: 16
Relative MIC [2, 8]: 16
Relative MIC [2, 9]: 16
Relative MIC [2, 10]: 8
Relative MIC [2, 11]: 8
Relative MIC [2, 12]: 8
MIC [2, 16]: 0.5 µg/mL
MIC [2, 17]: 0.5 µg/mL
MIC [2, 18]: 0.5 µg/mL
MIC ([2]; read-out: MIC of evolved line, Klebsiella pneumoniae ATCC 700603 (KP-MDR), evolved line 1): 32 µg/mL
MIC ([2]; read-out: MIC of evolved line, Klebsiella pneumoniae ATCC 700603 (KP-MDR), evolved line 2): 32 µg/mL
MIC ([2]; read-out: MIC of evolved line, Klebsiella pneumoniae ATCC 700603 (KP-MDR), evolved line 3): 32 µg/mL
MIC of ancestor ([3]; K. pneumoniae ATCC 10031 (KP-SEN), ancestor strain): 0.0312 µg/mL
MIC of ancestor [3, 13]: 0.0312 µg/mL
MIC of ancestor ([3]; Klebsiella pneumoniae ATCC 700603 (KP-MDR), ancestor strain): 4 µg/mL
MIC of ancestor [3, 14]: 4 µg/mL
MIC [3, 19]: 0.0312 µg/mL
MIC [3, 20]: 4 µg/mL
